Measurements reported in patent US11912693B2, “Compounds for modulating S1P1 activity and methods of using the same” (TREVENA, INC., priority 2017, dated 2024).

Assays:
[1] = target: T1, human sphingosine-1-phosphate receptor 1 (S1P1) (Homo sapiens (Human), UniProt P21453); experiment: Inhibition of cAMP production (HTRF cAMP HiRange), S1P1 CHO-K1 cells; format: cell-based; conditions: for Emax: CHO-K1, read-out: hS1P1 cAMP SPAN
Summary of the method: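 CHO-K1 cells stably co-expressing human S1P1 (C-terminal Prolink tag) and EA-β-arrestin2 were grown in AssayComplete Media 6 at 37° C. and 5% CO2, plated, and incubated overnight. Agonist-driven inhibition of intracellular cAMP was read by TR-FRET with the HTRF cAMP HiRange kit on a PheraStar reader. Potency is pEC50, and efficacy (SPAN) is normalized to fingolimod.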
Target sequence in this assay (P21453 whole entry, looked up): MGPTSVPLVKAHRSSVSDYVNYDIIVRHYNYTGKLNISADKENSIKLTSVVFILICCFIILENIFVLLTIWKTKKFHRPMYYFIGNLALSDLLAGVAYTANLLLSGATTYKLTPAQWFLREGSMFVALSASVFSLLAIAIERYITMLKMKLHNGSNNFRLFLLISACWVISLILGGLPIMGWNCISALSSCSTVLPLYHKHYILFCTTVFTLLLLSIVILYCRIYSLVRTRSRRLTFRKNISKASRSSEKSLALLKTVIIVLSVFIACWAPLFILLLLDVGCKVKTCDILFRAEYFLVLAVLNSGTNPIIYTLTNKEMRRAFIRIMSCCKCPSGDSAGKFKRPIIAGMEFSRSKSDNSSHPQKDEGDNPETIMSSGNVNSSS

[2] = target: T1, human sphingosine-1-phosphate receptor 1 (S1P1); experiment: β-Arrestin2 recruitment assay (PathHunter), S1P1 CHO-K1 cells; format: cell-based; conditions: for Emax: CHO-K1, read-out: hS1P1 B-arrestin2 SPAN
Summary of the method: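 Enzyme-fragment complementation read-out: agonist-driven β-arrestin2 binding to ProLink-tagged human S1P1 in stable CHO-K1 cells restores β-galactosidase, measured 1 h at room temperature after a 60 min 37° C. compound incubation. Potency as pEC50, efficacy relative to fingolimod (SPAN).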
Target sequence in this assay (P21453 whole entry, looked up): as above
Target sequence in this assay (P32121 whole entry partner, looked up): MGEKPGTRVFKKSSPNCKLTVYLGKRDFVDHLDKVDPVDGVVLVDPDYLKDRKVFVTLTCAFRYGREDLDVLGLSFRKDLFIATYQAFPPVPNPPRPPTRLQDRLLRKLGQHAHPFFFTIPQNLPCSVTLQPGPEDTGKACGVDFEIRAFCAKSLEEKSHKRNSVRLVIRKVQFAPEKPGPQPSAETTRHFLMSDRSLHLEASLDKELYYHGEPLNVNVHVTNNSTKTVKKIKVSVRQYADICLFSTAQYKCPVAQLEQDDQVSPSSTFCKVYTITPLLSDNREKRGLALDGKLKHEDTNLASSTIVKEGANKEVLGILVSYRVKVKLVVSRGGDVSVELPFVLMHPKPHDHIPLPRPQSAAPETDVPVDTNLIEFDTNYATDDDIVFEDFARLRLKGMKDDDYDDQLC

[3] = efficacy (SPAN) normalized to fingolimod
[4] = inhibition of cAMP production, S1P1 CHO-K1 cells
[5] = β-arrestin2 recruitment, S1P1 CHO-K1 cells

With `CCC1(CC)CC(=O)c2cc(-c3nc(-c4ccc(C(=O)N(C)C)cc4)no3)ccc2O1` [Compound 151, 4-(5-(2,2-diethyl-4-oxochroman-6-yl)-1,2,4-oxadiazol-3-yl)-N,N-dimethylbenzamide] the “hS1P1 cAMP SPAN” value [1, 3] was greater than 75, the “hS1P1 cAMP pEC50” value [1, 4] was less than 6.5 and the “hS1P1 B-arrestin2 SPAN” value [2, 3] was greater than 75. The “hS1P1 B-arrestin2 pEC50” value [2, 5] was less than 5.

`CC(C)n1nnc2cc(-c3nc(-c4cccnc4Cl)no3)ccc21` [Compound 499, 5-[3-(2-chloropyridin-3-yl)-1,2,4-oxadiazol-5-yl]-1-(propan-2-yl)-1H-1,2,3-benzotriazole] showed an Emax [1, 3] greater than 75%, an EC50 ([1]; inhibition of cAMP production, S1P1 CHO-K1 cells, read-out: hS1P1 cAMP pEC50 (converted)) of less than 0.316 µM and an Emax [2, 3] greater than 75%. It also gave an EC50 ([2]; β-arrestin2 recruitment, S1P1 CHO-K1 cells, read-out: hS1P1 B-arrestin2 pEC50 (converted)) of less than 10 µM.

For `CCC1(CC)CC(=O)c2cc(-c3nc(-c4ccnc(F)c4)no3)ccc2O1` [Compound 146, 2,2-diethyl-6-(3-(2-fluoropyridin-4-yl)-1,2,4-oxadiazol-5-yl)chroman-4-one], the Emax [1, 3] was greater than 75%, the “hS1P1 cAMP pEC50” value [1, 4] was greater than 6.5 and the Emax [2, 3] was less than 75%. For the same molecule, the “hS1P1 B-arrestin2 pEC50” value [2, 5] was greater than 5.

In the case of `O=C1CC2(CCCCC2)Oc2ccc(-c3nc(-c4cccnc4)no3)cc21` [Compound 41, 6-[3-(pyridin-3-yl)-1,2,4-oxadiazol-5-yl]-3,4-dihydrospiro[1-benzopyran-2,1′-cyclohexane]-4-one], the Emax [1, 3] is reported as less than 75%, the “hS1P1 cAMP pEC50” value [1, 4] is reported as less than 6.5 and the Emax [2, 3] is reported as less than 75%. For the same molecule, the “hS1P1 B-arrestin2 pEC50” value [2, 5] was less than 5.

With `COc1ccc(-c2nc(-c3ccc4c(c3)nnn4C3CCCC3)no2)cc1OC` [Compound 275, 3-(1-cyclopentyl-1H-benzo[d][1,2,3]triazol-5-yl)-5-(3,4-dimethoxyphenyl)-1,2,4-oxadiazole] the Emax [1, 3] was less than 75%, the “hS1P1 cAMP pEC50” value [1, 4] was less than 6.5 and the Emax [2, 3] was less than 75%. The “hS1P1 B-arrestin2 pEC50” value [2, 5] was less than 5.

For `CC(C)n1nnc2cc(-c3nc(-c4ccccc4)no3)ccc21` [Compound 79, 5-(3-phenyl-1,2,4-oxadiazol-5-yl)-1-(propan-2-yl)-1H-1,2,3-benzotriazole], the Emax [1, 3] was greater than 75%, the “hS1P1 cAMP pEC50” value [1, 4] was greater than 6.5 and the Emax [2, 3] was greater than 75%. The “hS1P1 B-arrestin2 pEC50” value [2, 5] was greater than 5.

`FC(F)(F)c1cccc(-c2nc(-c3ccc4c(c3)nnn4C3CCCC3)no2)c1` [Compound 12, 3-(1-cyclopentyl-1H-benzo[d][1,2,3]triazol-5-yl)-5-(3-(trifluoromethyl)phenyl)-1,2,4-oxadiazole] was tested, and the “hS1P1 cAMP pEC50” value [1, 4] was less than 6.5 and the “hS1P1 B-arrestin2 pEC50” value [2, 5] was less than 5.

In the case of `CC(C)n1nnc2cc(-c3noc(-c4ccc(-c5ccccc5)cc4)n3)ccc21` [Compound 248, 5-([1,1′-biphenyl]-4-yl)-3-(1-isopropyl-1H-benzo[d][1,2,3]triazol-5-yl)-1,2,4-oxadiazole], the “hS1P1 cAMP pEC50” value [1, 4] is reported as less than 6.5 and the “hS1P1 B-arrestin2 pEC50” value [2, 5] is reported as less than 5.

In the case of `CCC1(CC)C/C(=N/O)c2cc(-c3nc(-c4cccnc4)no3)ccc2O1` [Compound 430, N-[(4Z)-2,2-diethyl-6-[3-(pyridin-3-yl)-1,2,4-oxadiazol-5-yl]-3,4-dihydro-2H-1-benzopyran-4-ylidene]hydroxylamine], the “hS1P1 cAMP pEC50” value [1, 4] is reported as less than 6.5 and the “hS1P1 B-arrestin2 pEC50” value [2, 5] is reported as less than 5.

For `CCC1(CC)CC(=O)c2cc(-c3nc(-c4ccnc(C(N)=O)c4)no3)ccc2O1` [Compound 555, 4-(5-(2,2-diethyl-4-oxochroman-6-yl)-1,2,4-oxadiazol-3-yl)picolinamide], the “hS1P1 cAMP pEC50” value [1, 4] was greater than 6.5 and the “hS1P1 B-arrestin2 pEC50” value [2, 5] was greater than 5.

In the case of `CCC1(CC)CC(=O)c2cc(-c3nc(-c4cncc(OC)c4)no3)ccc2O1` [Compound 311, 2,2-diethyl-6-(3-(5-methoxypyridin-3-yl)-1,2,4-oxadiazol-5-yl)chroman-4-one], the “hS1P1 cAMP pEC50” value [1, 4] is reported as less than 6.5 and the “hS1P1 B-arrestin2 pEC50” value [2, 5] is reported as less than 5.

For `Cc1ccsc1-c1nc(-c2ccc3c(c2)nnn3C(C)(C)CO)no1` [Compound 611, 2-methyl-2-(5-(5-(3-methylthiophen-2-yl)-1,2,4-oxadiazol-3-yl)-1H-benzo[d][1,2,3]triazol-1-yl)propan-1-ol], the Emax [1, 3] was less than 75%, the “hS1P1 cAMP pEC50” value [1, 4] was greater than 6.5 and the Emax [2, 3] was less than 75%. For the same molecule, the “hS1P1 B-arrestin2 pEC50” value [2, 5] was greater than 5.

`Cc1ccccc1-c1nc(-c2ccc3c(ccn3C(C)C)c2)no1` [Compound 389, 3-(1-isopropyl-1H-indol-5-yl)-5-(o-tolyl)-1,2,4-oxadiazole] was tested, and the “hS1P1 cAMP pEC50” value [1, 4] was greater than 6.5 and the “hS1P1 B-arrestin2 pEC50” value [2, 5] was greater than 5.

For `C=CCNc1ccc(-c2nc(-c3ccc4c(c3)CCC(=O)N4)no2)cc1C#N` [Compound 61, 2-(allylamino)-5-(3-(2-oxo-1,2,3,4-tetrahydroquinolin-6-yl)-1,2,4-oxadiazol-5-yl)benzonitrile], the Emax [1, 3] was greater than 75%, the “hS1P1 cAMP pEC50” value [1, 4] was greater than 6.5 and the Emax [2, 3] was greater than 75%. For the same molecule, the “hS1P1 B-arrestin2 pEC50” value [2, 5] was greater than 5.

With `Cc1ccncc1-c1noc(-c2ccc3c(c2)nnn3C2CCOCC2)n1` [Compound 439, 5-[3-(4-methylpyridin-3-yl)-1,2,4-oxadiazol-5-yl]-1-(oxan-4-yl)-1H-1,2,3-benzotriazole] the Emax [1, 3] was greater than 75%, the “hS1P1 cAMP pEC50” value [1, 4] was less than 6.5 and the Emax [2, 3] was greater than 75%. For the same molecule, the “hS1P1 B-arrestin2 pEC50” value [2, 5] was less than 5.

With `CCC1(CC)CC(=O)c2cc(-c3nc(-c4cncc(C(N)=O)c4)no3)ccc2O1` [Compound 537, 5-(5-(2,2-diethyl-4-oxochroman-6-yl)-1,2,4-oxadiazol-3-yl)nicotinamide] the “hS1P1 cAMP pEC50” value [1, 4] was greater than 6.5 and the “hS1P1 B-arrestin2 pEC50” value [2, 5] was greater than 5.

In the case of `FC(F)Oc1ccc(-c2noc(-c3ccc4c(c3)nnn4C3CCCC3)n2)cc1` [Compound 80, 1-cyclopentyl-5-{3-[4-(difluoromethoxy)phenyl]-1,2,4-oxadiazol-5-yl}-1H-1,2,3-benzotriazole], the Emax [1, 3] is reported as less than 75%, the “hS1P1 cAMP pEC50” value [1, 4] is reported as greater than 6.5 and the Emax [2, 3] is reported as less than 75%. The “hS1P1 B-arrestin2 pEC50” value [2, 5] was less than 5.

With `O=C1CNc2ccc(-c3nc(-c4cccnc4)no3)cc2N1` [Compound 629, 7-[3-(pyridin-3-yl)-1,2,4-oxadiazol-5-yl]-1,2,3,4-tetrahydroquinoxalin-2-one] the “hS1P1 cAMP pEC50” value [1, 4] was less than 6.5 and the “hS1P1 B-arrestin2 pEC50” value [2, 5] was less than 5.

For `Cc1ccncc1-c1nc(-c2ccc3c(c2)nnn3C(C)(C)CO)no1` [Compound 625, 2-methyl-2-(5-(5-(4-methylpyridin-3-yl)-1,2,4-oxadiazol-3-yl)-1H-benzo[d][1,2,3]triazol-1-yl)propan-1-ol], the Emax [1, 3] was less than 75%, the “hS1P1 cAMP pEC50” value [1, 4] was less than 6.5 and the Emax [2, 3] was less than 75%. For the same molecule, the “hS1P1 B-arrestin2 pEC50” value [2, 5] was less than 5.

`CCC1(CC)CC(=O)c2cc(-c3nc(-c4cncc(F)c4)no3)ccc2O1` [Compound 551, 2,2-diethyl-6-(3-(5-fluoropyridin-3-yl)-1,2,4-oxadiazol-5-yl)chroman-4-one] was tested, and the “hS1P1 cAMP pEC50” value [1, 4] was greater than 6.5 and the “hS1P1 B-arrestin2 pEC50” value [2, 5] was greater than 5.

`CCC1(CC)CC(=O)c2cc(-c3nc(-c4ccccc4O)no3)ccc2O1` [Compound 187, 2,2-diethyl-6-[3-(2-hydroxyphenyl)-1,2,4-oxadiazol-5-yl]chroman-4-one] was tested, and the Emax [1, 3] was less than 75%, the “hS1P1 cAMP pEC50” value [1, 4] was less than 6.5 and the Emax [2, 3] was greater than 75%. For the same molecule, the “hS1P1 B-arrestin2 pEC50” value [2, 5] was less than 5.

With `COc1ccccc1-c1csc(-c2cnc3c(ccn3C(C)C)c2)n1` [Compound 401, 2-(1-isopropyl-1H-pyrrolo[2,3-b]pyridin-5-yl)-4-(2-methoxyphenyl)thiazole] the “hS1P1 cAMP pEC50” value [1, 4] was less than 6.5 and the “hS1P1 B-arrestin2 pEC50” value [2, 5] was less than 5.

`Cc1ccc2oc(-c3ccc4c(c3)nnn4C(C)C)nc2c1` [Compound 419, 2-(1-isopropyl-1H-benzo[d][1,2,3]triazol-5-yl)-5-methylbenzo[d]oxazole] was tested, and the Emax [1, 3] was greater than 75%, the “hS1P1 cAMP pEC50” value [1, 4] was greater than 6.5 and the Emax [2, 3] was less than 75%. The “hS1P1 B-arrestin2 pEC50” value [2, 5] was greater than 5.
